This is an account of results in patent publication US12070520B2, “Dermal delivery device” (Agile Therapeutics, Inc., priority 2007, dated 2024).

The nature of this series: Control of loss of volatile components: amounts in the AI patch after storage (gas chromatography). Format: physicochemical. The procedure: A transdermal hormone delivery device was prepared comprising an internal backing layer, an AI layer, and a release liner. […] The device also comprised an overlay comprising a polyurethane spun bonded non-woven backing, which is able to absorb large amounts of the volatile excipients, DMSO and ethyl lactate, an acrylic PSA coated onto the polyurethane foam, and a PIB PSA coated on top of the acrylic PSA. […] The release liner was a Mylar polyester film coated with a fluoropolymer release coating. […] The devices were placed in a 25 C or 40 C oven. After 6 weeks and 12 weeks, devices were removed from the oven and the active section of each device was separated from the overlay. […] (12 weeks exposure to 40 C is intended to simulate 18 months exposure to room temperature (25 C)).

`C[S+](C)[O-]` [DMSO, dimethyl sulfoxide]: the “Amount in the AI patch” value stood at 9.02 wt % (6 wks, 40 C.); 8.98 wt % (12 wks, 40 C.); 9.08 wt % (12 wks, room temp).

In the case of `CCOC(=O)C(C)O` (stereo not drawn) [Ethyl Lactate, ethyl lactate], the “Amount in the AI patch” value (6 wks, 40 C.) worked out at 1.66 wt %; the “Amount in the AI patch” value (12 wks, 40 C.) amounted to 1.57 wt %; the “Amount in the AI patch” value (12 wks, room temp) was 1.79 wt %.

`CCCCCCCCCCCCOC(=O)C(C)O` (stereo not drawn) [Lauryl Lactate, lauryl lactate]: the “Amount in the AI patch” value is given as 9.02 wt % (6 wks, 40 C.); 9.20 wt % (12 wks, 40 C.); 9.10 wt % (12 wks, room temp).
